Source: ChEMBL document CHEMBL1134665, “Synthesis and antitumor activity of ester-modified analogues of bengamide B” (J Med Chem, 2001)

How the values were obtained:
MDA-MB-435 [1] = experiment: (§1) Antiproliferative activity against MDA-MB-435 human breast carcinoma cells in vitro using MDA-MB-435 monolayer growth assay.; assay type: functional, cell-based
MDA-MB-435 [2] = experiment: In vivo percent T/C against MDA-MB-435 human breast carcinoma cells implanted sc in mice at a dose 10 umol/kg; assay type: functional
MDA-MB-435 [3] = experiment: In vivo percent body weight versus MDA-MB-435 human breast carcinoma cells implanted sc in mice at a dose 33 umol/Kg; assay type: functional
MDA-MB-435 [4] = experiment: as §1; assay type: functional
MDA-MB-435 [5] = experiment: In vivo percent body weight versus MDA-MB-435 human breast carcinoma cells implanted sc in mice at a dose 10 umol/kg; assay type: functional
MDA-MB-435 [6] = experiment: In vivo percent T/C against MDA-MB-435 human breast carcinoma cells implanted sc in mice at a dose 33 umol/Kg; assay type: functional
MDA-MB-435 [7] = experiment: In vivo for percent body weight against MDA-MB-435 human breast carcinoma cells implanted sc in mice at a dose 52 umol/Kg; assay type: functional
MDA-MB-435 [8] = experiment: In vivo percent T/C against MDA-MB-435 human breast carcinoma cells implanted sc in mice at a dose 52 umol/Kg; assay type: functional
MDA-MB-435 [9] = experiment: In vivo for percent body weight against MDA-MB-435 human breast carcinoma cells implanted sc in mice at a dose 26 umol/kg; assay type: functional
MDA-MB-435 [10] = experiment: In vivo percent T/C against MDA-MB-435 human breast carcinoma cells implanted sc in mice at a dose 26 umol/kg; assay type: functional
MDA-MB-435 [11] = experiment: In vivo for percent body weight against MDA-MB-435 human breast carcinoma cells implanted sc in mice at a dose 100 umol/Kg; assay type: functional
MDA-MB-435 [12] = experiment: In vivo percent T/C against MDA-MB-435 human breast carcinoma cells implanted sc in mice at a dose 100 umol/kg; assay type: functional
MDA-MB-435 [13] = experiment: In vivo percent T/C against MDA-MB-435 human breast carcinoma cells implanted sc in mice at a dose 100 umol/Kg; assay type: functional
MDA-MB-435 [14] = experiment: In vivo for percent body weight against MDA-MB-435 human breast carcinoma cells implanted sc in mice at a dose m100 umol/Kg; assay type: functional
MDA-MB-435 [15] = experiment: In vivo for percent body weight against MDA-MB-435 human breast carcinoma cells implanted sc in mice at a dose 2 umol/kg; assay type: functional
MDA-MB-435 [16] = experiment: In vivo percent T/C against MDA-MB-435 human breast carcinoma cells implanted sc in mice at a dose 2 umol/kg; assay type: functional
MDA-MB-435 [17] = experiment: In vivo for percent body weight against MDA-MB-435 human breast carcinoma cells implanted sc in mice at a dose 28 umol/kg; assay type: functional
MDA-MB-435 [18] = experiment: In vivo percent T/C against MDA-MB-435 human breast carcinoma cells implanted sc in mice at a dose 84 umol/Kg; assay type: functional
MDA-MB-435 [19] = experiment: In vivo percent T/C against MDA-MB-435 human breast carcinoma cells implanted sc in mice at a dose 28 umol/kg; assay type: functional
MDA-MB-435 [20] = experiment: In vivo for percent body weight against MDA-MB-435 human breast carcinoma cells implanted sc in mice at a dose 279 umol/Kg; assay type: functional
MDA-MB-435 [21] = experiment: In vivo percent T/C against MDA-MB-435 human breast carcinoma cells implanted sc in mice at a dose 279 umol/Kg; assay type: functional
MDA-MB-435 [22] = experiment: In vivo for percent body weight against MDA-MB-435 human breast carcinoma cells implanted sc in mice at a dose 84 umol/kg; assay type: functional

SMILES | T/C (MDA-MB-435 [2]) [%] | Body weight (MDA-MB-435 [3]) [%] | IC50 (MDA-MB-435 [4]) [nM] | Body weight (MDA-MB-435 [5]) [%] | T/C (MDA-MB-435 [6]) [%] | further results
CCCCCCCCCCCCCOC(=O)[C@H]1CCC(NC(=O)[C@H](OC)[C@H](O)[C@@H](O)[C@H](O)/C=C/C(C)C)C(=O)NC1 (stereo partly specified) |  |  |  |  |  | IC50 (MDA-MB-435 [1]): 1 nM
CCCCCCCCCCCCCC(=O)O[C@@H]1CCC(NC(=O)[C@H](OC)[C@H](O)[C@@H](O)[C@H](O)/C=C/C(C)(C)C)C(=O)NC1 (stereo partly specified) | <41 | 5.7 | < 10 | 7.4 | <4 | 
CO[C@@H](C(=O)NC1CC[C@@H](OC(=O)c2ccccc2)CNC1=O)[C@H](O)[C@@H](O)[C@H](O)/C=C/C(C)(C)C (stereo partly specified) | 93 | 5.6 | 370 | 5.5 | 80 | 
CO[C@@H](C(=O)NC1CC[C@@H](OC(=O)C2CCCC2)CNC1=O)[C@H](O)[C@@H](O)[C@H](O)/C=C/C(C)(C)C (stereo partly specified) | 67 | 3 | 130 | 7.6 | <13 | 
CO[C@@H](C(=O)NC1CC[C@H](O)CN(C)C1=O)[C@H](O)[C@@H](O)[C@H](O)/C=C/C(C)C (stereo partly specified) |  |  |  |  |  | Body weight (MDA-MB-435 [7]): 0.8%; T/C (MDA-MB-435 [8]): 41%; Body weight (MDA-MB-435 [9]): 9.5%; T/C (MDA-MB-435 [10]): 42%; IC50 (MDA-MB-435 [1]): 2900 nM
CO[C@@H](C(=O)NC1CC[C@@H](OC(=O)C2CCCCC2)CNC1=O)[C@H](O)[C@@H](O)[C@H](O)/C=C/C(C)(C)C (stereo partly specified) | <58 | 3.5 | 4 | 10.5 | <7 | Body weight (MDA-MB-435 [11]): -2.6%; T/C (MDA-MB-435 [12]): <29%
CCCCCCCCCCOc1ccc(C(=O)O[C@@H]2CCC(NC(=O)[C@H](OC)[C@H](O)[C@@H](O)[C@H](O)/C=C/C(C)(C)C)C(=O)NC2)cc1 (stereo partly specified) | <64 | -0.9 | 10 | 8.8 | 2 | 
CCCCCc1ccc(C(=O)O[C@@H]2CCC(NC(=O)[C@H](OC)[C@H](O)[C@@H](O)[C@H](O)/C=C/C(C)(C)C)C(=O)NC2)cc1 (stereo partly specified) | 111 | 2.6 | 20 | 6 | 91 | 
CO[C@@H](C(=O)NC1CC[C@@H](OC(=O)CC2CCCCC2)CNC1=O)[C@H](O)[C@@H](O)[C@H](O)/C=C/C(C)(C)C (stereo partly specified) | <47 | 3.5 | 60 | 4.6 | <34 | 
CCCCCCCCCCCCCC(=O)O[C@H]1CCC(NC(=O)[C@H](OC)[C@H](O)[C@@H](O)[C@H](O)/C=C/C(C)(C)C)C(=O)N(C)C1 (stereo partly specified) | <58 | 6.4 | 10 | 6.1 | <46 | 
CO[C@@H](C(=O)NC1CC[C@@H](OC(=O)/C=C/c2ccccc2)CNC1=O)[C@H](O)[C@@H](O)[C@H](O)/C=C/C(C)(C)C (stereo partly specified) | <64 | 7.5 | 20 | 7.4 | <63 | 
CO[C@@H](C(=O)NC1CC[C@@H](OC(=O)Cc2ccccc2)CNC1=O)[C@H](O)[C@@H](O)[C@H](O)/C=C/C(C)(C)C (stereo partly specified) | 72 | 3.9 | 260 | 10.6 | <43 | 
CO[C@@H](C(=O)NC1CC[C@@H](OC(=O)CCc2ccccc2)CNC1=O)[C@H](O)[C@@H](O)[C@H](O)/C=C/C(C)(C)C (stereo partly specified) | <53 | 5.3 | 10 | 6 | <12 | T/C (MDA-MB-435 [13]): <58%; Body weight (MDA-MB-435 [14]): -3.1%
COc1cccc2c1C(=O)c1c(O)c3c(c(O)c1C2=O)C[C@@](O)(C(=O)CO)C[C@@H]3O[C@H]1C[C@H](N)[C@H](O)[C@H](C)O1 [DOXORUBICIN] |  |  | 400 |  |  | Body weight (MDA-MB-435 [15]): 3.9%; T/C (MDA-MB-435 [16]): <44%
CO[C@@H](C(=O)NC1CC[C@@H](OC(=O)Cc2cccnc2)CNC1=O)[C@H](O)[C@@H](O)[C@H](O)/C=C/C(C)(C)C (stereo partly specified) | 69 | 6.8 | 5850 | 6.4 | 82 | 
CO[C@@H](C(=O)NC1CC[C@@H](OC(=O)CCc2cccnc2)CNC1=O)[C@H](O)[C@@H](O)[C@H](O)/C=C/C(C)(C)C (stereo partly specified) | 92 | 3 | 460 | 10.1 | <44 | 
CCCCCCCCCCc1ccc(C(=O)O[C@@H]2CCC(NC(=O)[C@H](OC)[C@H](O)[C@@H](O)[C@H](O)/C=C/C(C)(C)C)C(=O)NC2)cc1 (stereo partly specified) | 76 | 2.6 | 30 | 6 | <6 | 
CO[C@@H](C(=O)NC1CCCCNC1=O)[C@H](O)[C@@H](O)[C@H](O)/C=C/C(C)C (stereo partly specified) |  |  |  |  |  | Body weight (MDA-MB-435 [17]): 8.4%; T/C (MDA-MB-435 [18]): 62%; T/C (MDA-MB-435 [19]): 62%; Body weight (MDA-MB-435 [20]): 6.7%; IC50 (MDA-MB-435 [1]): 3300 nM; T/C (MDA-MB-435 [21]): <19%; Body weight (MDA-MB-435 [22]): 7.1%
CO[C@@H](C(=O)NC1CC[C@@H](OC(=O)C2CCCCCC2)CNC1=O)[C@H](O)[C@@H](O)[C@H](O)/C=C/C(C)(C)C (stereo partly specified) | <39 | 8.4 | 20 | 10.1 | <28 | 
CO[C@@H](C(=O)NC1CCCCN(C)C1=O)[C@H](O)[C@@H](O)[C@H](O)/C=C/C(C)C (stereo partly specified) |  |  |  |  |  | IC50 (MDA-MB-435 [1]): 2900 nM
